Source: publication PMC3655043, “Functional expression of a blood tolerant laccase in Pichia pastoris” (BMC Biotechnology, 2013)

Molecular target: T1, ChU-B laccase (blood-tolerant ChU-B mutant of PM1 laccase) (basidiomycete PM1, UniProt Q12571, F417I/F475E, form not given)
T1 construct: directed-evolution variant; alpha-factor evolved prepro-leader processed, extra N-terminal ETEAEF kept (ETEAEFSIGP...); secreted by Pichia pastoris X-33; 53,939 Da calculated, 62,541 Da glycosylated
Experiment: steady-state kinetics, absorbance […] nm
Type: biochemical
Conditions: pH 5.0; enzyme from P. pastoris; read-out: ChU-B fromP. pastoris / Km

T1 sequence (Q12571 entry or part of it F417I/F475E, form open): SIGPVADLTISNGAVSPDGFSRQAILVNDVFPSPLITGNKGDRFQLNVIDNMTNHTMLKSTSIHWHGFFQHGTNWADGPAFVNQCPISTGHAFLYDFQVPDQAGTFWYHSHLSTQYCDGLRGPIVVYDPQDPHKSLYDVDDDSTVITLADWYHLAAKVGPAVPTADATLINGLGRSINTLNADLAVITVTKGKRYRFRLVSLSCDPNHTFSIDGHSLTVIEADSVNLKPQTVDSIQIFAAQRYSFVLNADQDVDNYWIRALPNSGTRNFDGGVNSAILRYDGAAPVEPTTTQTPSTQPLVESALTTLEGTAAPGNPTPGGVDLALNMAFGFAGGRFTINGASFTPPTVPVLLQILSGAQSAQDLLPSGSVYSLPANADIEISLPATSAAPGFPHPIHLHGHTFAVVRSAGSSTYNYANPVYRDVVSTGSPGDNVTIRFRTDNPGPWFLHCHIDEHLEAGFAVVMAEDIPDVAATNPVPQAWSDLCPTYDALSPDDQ

COc1cccc(OC)c1O [DMP] was tested, and the Km was 1.91 ± 0.05 mM.
